Where “and” joins values, the source holds several entries; their conditions need not be identical. Equal values may be shown once. Read-outs that look alike come from different tables or passages of the source.
Assays:
AChE = details: cited from earlier work
SH-SY5Y cells = assay: Mitochondrial membrane potential (ΔΨm) assay (TMRE); assay type: cell-based, Human; details: 12 h pre-treatment, 200 μM H2O2 2 h
Procedure: (§1) Human neuroblastoma SH-SY5Y cells (ATCC CRL-2266, Manassas, VA, USA) were maintained in Dulbecco’s modified Eagle’s medium (DMEM, Gibco) supplemented with 10% fetal bovine serum (FBS), 1% kanamycin, and 1% penicillin (Thermo Fisher Scientific, Waltham, MA, USA) at 37 °C with 5% CO2, and a 95% humidified atmosphere in the incubator. The experiments were executed at 80–90% cell confluency.
The mitochondrial membrane potential was measured using the tetramethylrhodamine, methyl ester (TMRE) staining method. The cells (1 × 10^4 cells/well) were seeded in a 96-well sterile plate; after which, they were pre-treated with the extract for 12 h. The extracts and phytocompounds were removed, followed by a 2 h treatment with H2O2 (200 μM). A 1 μM amount of TMRE was added to the cells and incubated for 1 h at 37 °C. The fluorescence was assessed (Ex 549 nm, Ems 575 nm) using a microplate reader (Synergy-H1 BioTek, Agilent, USA). The ΔΨm was calculated as a percentage of the untreated control cells (100%) in triplicate measurements.

[1] = biological target: T1, Acetylcholinesterase (Electrophorus electricus, Type VI-S) (Electrophorus electricus, UniProt O42275); assay: biochemical; details: for Type of Inhibition of AChE: Lineweaver–Burk plot, 100 and 200 μg/mL; for Vmax of AChE in presence of inhibitor: no inhibitor 2.975; for IC50: read-out: AChE IC50 (converted)
T1 construct: purchased Sigma-Aldrich
Procedure: The AChE activity was examined by slight modifications [23] in Ellman’s method [76]. The extracts and phytocompounds were incubated for 15 min with AChE and 10 mM ATCC at 37 °C. The reaction was stopped by DTNB (15 mM), and the absorbance was measured at 412 nm (Multi-mode plate reader, Synergy-H1 BioTek, Agilent, USA). […] The percent inhibition was calculated as:Percent Inhibition (I%) = [(Ao − Ac) − (Bi − Bc)]/(Ao − Ac) × 100 where Ao is the absorbance without inhibitor; Ac is the negative control without inhibitor; Bi is the absorbance with inhibitor; and Bc is the negative control with inhibitor. The IC50 values were calculated using GraphPad Prism 10. Lineweaver–Burk plot was used to prepare the inhibition curves (with and without extract/phytocompound) using GraphPad Prism 10. The kinetic parameters were calculated from a non-linear fit (Michaelis–Menten equation) in GraphPad Prism 10.
Statistical analysis was established by a one-way ANOVA followed by Dunnett’s post hoc test. Data are registered as the mean ± SEM of three sets of experiments. […] The IC50 values were determined using non-linear regression. The Vmax and Km were calculated from a Michaelis–Menten plot drawn using a non-linear plot (GraphPad Prism 10). Lineweaver–Burk plots were drawn using linear regression analysis (GraphPad Prism 10). The Ki values were calculated from the formula IC50 = Ki (1 + [S]/Km).

SH-SY5Y cells lysate = assay: Malondialdehyde (MDA) in cell lysate (TBA:TCA); assay type: cell-based, Human; details: 24 h pre-treatment, 6 h H2O2 100 μM
Procedure: as §1
(§2) The cells (5 × 10^4 cells/well) were seeded in a 6-well sterile plate and incubated for 18–24 h. After stabilization, cells were pre-treated with the extracts and phytocompounds for 24 h before 6 h incubation with H2O2 (100 μM). The culture media was removed, and the cells were washed with cold PBS (1X). The cells were placed on ice and incubated with pre-chilled RIPA buffer for 10 min. Transfer the lysate in microfuge tubes and centrifuge (Labogene 1730R, BMS, Paju-si, Republic of Korea) for 10 min at 20,000× g, 4 °C. The supernatant was collected and stored at −80 °C.
MDA levels were measured using TBA: TCA reagent as described previously. In the reaction, MDA reacts with two molecules of thiobarbituric acid (TBA) to give a pink pigment that absorbs at 532 nm. The standard curve of MDA (1–100 μM) was used to calculate lipid peroxidation in the lysate.

[2] = Ferric reducing antioxidant potential (FRAP) assay; details: 1 mg/mL
Procedure: FRAP assay was used to assess the […] of the extracts and phytocompounds with slight modification in a previously reported method. For the assay, the extract (1 mg/mL) was incubated with 200 μL of FRAP reagent, and the reduction of ferric tripyridyltriazine was monitored at 593 nm (Multimode reader, Synergy-H1 BioTek, Agilent, USA). Ascorbic acid (2 μg/mL) was used as a positive control. FRAP values of the extracts and phytocompounds were calculated from the standard curve of FeSO4 (15–250 μM) and expressed as μM Fe^2+/g.

[3] = tested on: H2O2-induced neuroblastoma SH-SY5Y cells; assay: Neuroprotection assay against H2O2-induced oxidative stress (WST-8); assay type: cell-based, Human
Procedure: as §1
The neuroprotective effect of extracts and phytocompounds on H2O2-induced oxidative stress in SH-SY5Y by a previously described method. The cells (1 × 10^4 cells/well) were seeded in a 96-well sterile plate. After stabilization, the cells were pre-treated with the extracts and phytocompounds for 24 h. The extracts and phytocompounds were removed and treated with H2O2 (100 μM) for 6 h. A solvent control, H2O2 alone, and extract alone treatments were also included. After incubation, the % cell viability was measured using WST-8 reagent in triplicate experiments.

Aβ1–42 [4] = biological target: T2, Aβ1–42 (Homo sapiens, UniProt P05067); assay: Anti-Aβ1–42 oligomerization, multimeric detection system (MDS); assay type: biochemical; details: for Aβ oligomerization reduction (relative amount of Aβ oligomers): vs negative control (Buffer + Aβ)
T2 construct: Aβ1–42 for MDS (GenicBio Inc., Shanghai, China); purchased GenicBio Inc
Procedure: The anti-Aβ1–42 oligomerization and fibrilization activity of the extracts/bioactives were measured by Multiple Detection System (MDS) and ThT assay, respectively. Briefly, the extracts and phytocompounds were incubated with Aβ1–42 at RT for different time points (0 h, 2 h, and 4 h). The samples were incubated on an anti-β-amyloid pre-coated plate for 1 h at RT. An HRP-conjugated W0–2 monoclonal antibody was added, and the plate was kept at RT for 30 min. Later, TMB was added, and the plate was incubated for 15 min at RT. The absorbance was read at 450 nm using a microplate reader (Victor3, PerkinElmer, Shelton, CT, USA)

[5] = cited from earlier work
[6] = tested on: SH-SY5Y neuroblastoma cell line; assay: Cell viability / cytotoxicity assay (WST-8); assay type: cell-based, Human; details: 24 h treatment; 1, 10, 30 µg/mL
Procedure: as §1
The cells were seeded (1 × 10^4 cells/well) in 96-well sterile plates and pre-treated with various extract concentrations (1, 10, 30 µg/mL) for 24 h. The extracts and phytocompounds were removed and incubated for 2 h with 10% WST-8 reagent (Roche, Grenzach-Wyhlen, Germany) as described previously. The absorbance was determined at 450 nm in a multi-plate reader (Synergy-H1 BioTek, Agilent, USA). The percent cytotoxicity was calculated as:Cytotoxicity % = (Ac − At)/(Ac) × 100 where Ac = absorbance of the control cells, At = absorbance of the treated cells.
The plot of percent cytotoxicity versus sample concentration was used to calculate the extract concentration that killed 50% of the cells (IC50).

Aβ1–42 [7] = biological target: T2, Aβ1–42; assay: Anti-Aβ1–42 fibrilization, ThT assay; assay type: biochemical; details: for Aβ fibrilization inhibition (ThT): samples 500 μg/mL, 37 °C 24 h
Procedure: The anti-Aβ1–42 fibrilization activity of the extracts/bioactives was monitored using a ThT assay. The samples were incubated in the presence/absence of Aβ1–42 at 37 °C for 24 h. The samples were incubated with 100 μM ThT at 37 °C for 15 min. The fluorescence was monitored at Ex 450 nm/Ems 490 nm (Synergy-H1 BioTek, Agilent, Santa Clara, CA, USA). For the control, phenol red (50 μM) was used. The Aβ1–42 aggregation inhibition was calculated as follows:Percent Inhibition (%) = [(1 − Fi/Fc) × 100] where Fi and Fc are the fluorescence intensity with and without the inhibitors, respectively.

[8] = tested on: H2O2-induced ROS production in SH-SY5Y cells; assay: Intracellular ROS measurement (H2DCFDA); assay type: cell-based, Human; details: 12 h pre-treatment, H2O2 100 µM 2 h, H2O2 alone 156.96 ± 5.07%
Procedure: as §1
The cells (1 × 10^4 cells/well) were seeded in a 96-well sterile plate, after which they were pre-treated with the extract for 12 h. […] The fluorescence intensity (Ex 495 nm, Ems 520 nm) was measured by a microplate reader (Synergy-H1 BioTek, Agilent, USA). The ROS was calculated as a percentage of the untreated control cells (100%) in triplicate measurements.

SH-SY5Y cell lysate = assay: Glutathione (GSH, GSSG) in cell lysate; assay type: cell-based, Human; details: 10 μg/mL; 24 h pre-treatment, 6 h H2O2 100 μM
Procedure: as §1, §2
The concentrations of GSH (reduced) and GSSG (oxidized) in the lysate were measured fluorometrically using a previously described and the fluorescence was recorded at 350/420 (Ex/Ems) in a microplate reader (Synergy-H1 BioTek, Agilent, Santa Clara, CA, USA).

[9] = ABTS radical scavenging assay; details: positive control at 10 μg/mL
[10] = DPPH radical scavenging assay; details: positive control at 10 μg/mL
Procedure: DPPH radical scavenging capacity of the extracts and phytocompounds at 1 mg/mL was measured with slight modification. The absorbance was monitored at 515 nm (Multimode reader, Synergy-H1 BioTek, Agilent, Santa Clara, CA, USA) using ascorbic acid (0.1–10 μg/mL) as a standard. Radical scavenging activity (RSA) was calculated as:% RSA = (Ab − Ae/Ab) × 100 where Ab = absorbance of the blank and Ae = absorbance of the extract.

[11] = mean of three experiments ± SEM

T2 sequence (P05067 672-713): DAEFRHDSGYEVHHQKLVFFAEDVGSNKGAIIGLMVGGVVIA
T1 sequence (O42275 24-633): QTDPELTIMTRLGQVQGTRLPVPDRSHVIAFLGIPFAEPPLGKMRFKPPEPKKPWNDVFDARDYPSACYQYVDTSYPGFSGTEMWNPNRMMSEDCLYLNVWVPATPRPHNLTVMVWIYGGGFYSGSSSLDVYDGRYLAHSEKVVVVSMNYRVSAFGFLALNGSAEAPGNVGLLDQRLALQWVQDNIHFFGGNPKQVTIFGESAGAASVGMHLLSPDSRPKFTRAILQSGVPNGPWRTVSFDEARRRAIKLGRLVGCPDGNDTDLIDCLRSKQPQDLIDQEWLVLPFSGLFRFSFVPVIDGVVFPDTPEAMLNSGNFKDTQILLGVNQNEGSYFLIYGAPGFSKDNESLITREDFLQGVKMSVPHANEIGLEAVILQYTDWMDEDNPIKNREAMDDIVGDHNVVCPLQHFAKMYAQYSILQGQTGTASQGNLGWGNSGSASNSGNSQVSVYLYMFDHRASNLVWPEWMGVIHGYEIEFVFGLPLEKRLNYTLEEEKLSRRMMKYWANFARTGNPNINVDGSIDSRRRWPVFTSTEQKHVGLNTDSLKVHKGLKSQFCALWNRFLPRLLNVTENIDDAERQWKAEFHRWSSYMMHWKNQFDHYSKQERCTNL

## COc1ccc2c3c1O[C@H]1C[C@@H](O)C=C[C@@]31CCN(C)C2 [galantamine, reference compound]
AChE; previously reported value, no reference given
  AChE IC50: 4.31 µg/mL

## C=CCc1cc(OC)c2c(c1OC)OCO2 [apiole]
SH-SY5Y cells; 0.1 µg/mL
  MMP (% ΔΨm vs untreated cells): 71.53 ± 0.37%
SH-SY5Y cells; 1–30 µg/mL
  MMP (% ΔΨm vs untreated cells): 75 to 77%
[1]; Ki
  Ki: 1.72 mM
[1]; Ki (inhibitor constant), AChE
  Ki: 1.72 mM and 1.71 mM
[1]
  Type of Inhibition of AChE: competitive inhibition
[1]; listed as Apiole
  Type of Inhibition of AChE: Competitive
[1]; inhibitor 100 μg/mL
  Vmax of AChE in presence of inhibitor: 3.551 µmol/min/mg
[1]; inhibitor 200 μg/mL
  Vmax of AChE in presence of inhibitor: 3.712 µmol/min/mg
[1]; [11]
  IC50: 1.75 mM
[1]; molar equivalent of the μg/mL value
  IC50: 1.74 mM
SH-SY5Y cells lysate; 0.1 µg/mL
  MDA level: 1.94 µM
SH-SY5Y cells lysate; 1 and 10 µg/mL
  MDA level: ~ 1.38 µM
[2]
  FRAP value: 42.41 ± 3.54 µM Fe^2+/g
[3]; 1–30 µg/mL, 12 h pre-treatment, 1 h H2O2 100 µM
  % cell viability, H2O2-induced SH-SY5Y: ~ 75%
Aβ1–42 [4]; 2 h incubation
  Aβ oligomerization reduction (relative amount of Aβ oligomers): statistically significant
Aβ1–42 [4]; 4 h incubation
  Aβ oligomerization reduction (relative amount of Aβ oligomers): statistically significant
[5]
  BBB permeability: lacks significant BBB permeability
[6]
  Cytotoxicity (cell viability) in SH-SY5Y: No significant difference
Aβ1–42 [7]
  Aβ fibrilization inhibition (ThT): 41.85 ± 1.73%
[8]; 10 µg/mL
  ROS level (% of untreated cells): 113.63 ± 6.25%
[8]; 30 µg/mL
  ROS level (% of untreated cells): 102.92 ± 9.11%

## O=S1(=O)OC(c2ccc(O)cc2)(c2ccc(O)cc2)c2ccccc21 [phenol red, reference compound]
Aβ1–42 [7]; positive control 50 μM, read-out: Aβ fibrilization inhibition (ThT)
  inhibition at 50 µM: 60.3 ± 4.29%

## C=C(C)[C@H]1CC[C@H](C)C(=O)C1 [DHC, cyclohexanone,2-methyl-5-(1-methylethenyl)-]
SH-SY5Y cells; 0.1 µg/mL
  MMP (% ΔΨm vs untreated cells): 74.94 ± 1.20%
SH-SY5Y cells; 1 µg/mL
  MMP (% ΔΨm vs untreated cells): 79.26 ± 0.56%
SH-SY5Y cells; 10 µg/mL
  MMP (% ΔΨm vs untreated cells): 85.21 ± 0.19%
SH-SY5Y cells; 30 µg/mL
  MMP (% ΔΨm vs untreated cells): 86.91 ± 5.47%
[1]; [11]
  IC50: > 7.87 mM and 7.87 mM
[1]; stated as bound
  IC50: > 6.57 mM
SH-SY5Y cells lysate; 0.1 µg/mL
  MDA level: 1.79 µM
SH-SY5Y cells lysate; 1 µg/mL
  MDA level: 1.60 µM
SH-SY5Y cells lysate; 10 μg/mL
  MDA level: 1.45 µM
[2]
  FRAP value: 45.22 ± 0.72 µM Fe^2+/g
SH-SY5Y cell lysate
  GSSG levels: substantial reduction
AChE; at 1 mg/mL
  AChE inhibition: 31.1%
[3]; all concentrations (0.1–30 µg/mL)
  cell viability change vs H2O2 control: non-significantly increased
Aβ1–42 [4]; 2 h incubation
  Aβ oligomerization reduction (relative amount of Aβ oligomers): non-significant
Aβ1–42 [4]; MDS, Figure 3B, mean ± SEM n = 3
  percent Aβ oligomerization inhibition: 26.62 ± 8.62%
[6]
  Cytotoxicity (cell viability) in SH-SY5Y: No significant difference
Aβ1–42 [7]
  Aβ fibrilization inhibition (ThT): 26.6% and 33.44 ± 3.43%
[8]; 10 µg/mL
  ROS level (% of untreated cells): 107.37 ± 8.26%
[8]; 30 µg/mL
  ROS level (% of untreated cells): 96.73 ± 9.11%

## O=c1c(O)c(-c2ccc(O)c(O)c2)oc2cc(O)cc(O)c12 [quercetin]
[9]
  ABTS radical scavenging activity: 97.55 ± 0.05%

## O=C1O[C@H]([C@@H](O)CO)C(O)=C1O [Ascorbic acid, ascorbic acid]
[10]
  DPPH percent radical scavenging activity: 85.43 ± 1.02%

— paper PMC11241255 (International Journal of Molecular Sciences, 2024)
